The NIST ThermoML archive (doi:10.1021/je901067c)
± gives the expanded uncertainty stated by the source.

Experiments:
[1] = refractive index (Na D-line) (dimensionless); xn = mol fraction of the nth substance listed; settings: 101 kPa, Liquid, Standard Abbe refractometry
[2] = xn = mol fraction of the nth substance listed; settings: 101 kPa, Liquid; for viscosity: Capillary tube (Ostwald / Ubbelohde) method

CCC(O)CC [3-pentanol] + CCC(C)=O
Settings	mass density, 298.15 K [kg/m3]	mass density, 308.15 K [kg/m3]	mass density, 318.15 K [kg/m3]	refractive index, 298.15 K	refractive index, 308.15 K	refractive index, 318.15 K	viscosity, 298.15 K [mPa·s]	viscosity, 308.15 K [mPa·s]	viscosity, 318.15 K [mPa·s]
[1], x2 = 0	–	–	–	1.4047 ± 0.0009	1.4029 ± 0.0009	1.3981 ± 0.0009	–	–	–
[1], x2 = 0.0843	–	–	–	1.4032 ± 0.0009	1.4012 ± 0.0009	1.3965 ± 0.0009	–	–	–
[1], x2 = 0.1622	–	–	–	1.4016 ± 0.0009	1.3995 ± 0.0009	1.3949 ± 0.0009	–	–	–
[1], x2 = 0.2428	–	–	–	1.3999 ± 0.0009	1.3975 ± 0.0009	1.3929 ± 0.0009	–	–	–
[1], x2 = 0.3505	–	–	–	1.3971 ± 0.0009	1.3944 ± 0.0009	1.3901 ± 0.0009	–	–	–
[1], x2 = 0.4415	–	–	–	1.3945 ± 0.0009	1.3916 ± 0.0009	1.3873 ± 0.0009	–	–	–
[1], x2 = 0.5584	–	–	–	1.3908 ± 0.0009	1.3876 ± 0.0009	1.3835 ± 0.0009	–	–	–
[1], x2 = 0.6526	–	–	–	1.3876 ± 0.0009	1.3841 ± 0.0009	1.38 ± 0.0009	–	–	–
[1], x2 = 0.7399	–	–	–	1.3846 ± 0.0009	1.3806 ± 0.0009	1.3767 ± 0.0009	–	–	–
[1], x2 = 0.854	–	–	–	1.3803 ± 0.0009	1.376 ± 0.0009	1.372 ± 0.0009	–	–	–
[1], x2 = 0.9383	–	–	–	1.3773 ± 0.0009	1.3725 ± 0.0009	1.3684 ± 0.0009	–	–	–
[2], x2 = 0	815.79 ± 0.54	806.91 ± 0.56	797.66 ± 0.57	–	–	–	4.625 ± 0.034	2.864 ± 0.022	1.902 ± 0.015
[2], x2 = 0.0843	813.43 ± 0.55	804.58 ± 0.56	795.034 ± 0.57	–	–	–	2.842 ± 0.022	1.965 ± 0.015	1.382 ± 0.011
[2], x2 = 0.1622	811.5 ± 0.55	802.6 ± 0.56	792.888 ± 0.57	–	–	–	2.007 ± 0.015	1.476 ± 0.012	0.9911 ± 0.0086
[2], x2 = 0.2428	809.72 ± 0.55	800.57 ± 0.56	790.723 ± 0.57	–	–	–	1.494 ± 0.012	1.151 ± 0.01	0.7246 ± 0.0069
[2], x2 = 0.3505	807.45 ± 0.55	798.07 ± 0.57	788.175 ± 0.58	–	–	–	1.084 ± 0.009	0.869 ± 0.008	0.5197 ± 0.0058
[2], x2 = 0.4415	805.82 ± 0.56	796.23 ± 0.57	786.285 ± 0.58	–	–	–	0.86 ± 0.008	0.717 ± 0.007	0.417 ± 0.0053
[2], x2 = 0.5584	803.92 ± 0.56	794.1 ± 0.57	784.161 ± 0.58	–	–	–	0.677 ± 0.007	0.578 ± 0.006	0.3306 ± 0.0049
[2], x2 = 0.6526	802.64 ± 0.56	792.64 ± 0.57	782.699 ± 0.58	–	–	–	0.591 ± 0.006	0.506 ± 0.006	0.2938 ± 0.0048
[2], x2 = 0.7399	801.72 ± 0.56	791.55 ± 0.57	781.619 ± 0.59	–	–	–	0.508 ± 0.006	0.448 ± 0.005	0.2919 ± 0.0048
[2], x2 = 0.854	800.8 ± 0.56	790.31 ± 0.58	780.165 ± 0.59	–	–	–	0.445 ± 0.005	0.396 ± 0.005	0.297 ± 0.0048
[2], x2 = 0.9383	800.16 ± 0.56	789.7 ± 0.58	779.212 ± 0.59	–	–	–	0.407 ± 0.005	0.365 ± 0.005	0.3106 ± 0.0048
